Measurements: US8759011B2, “Assay system for determining binding of hydrophobic drugs” (Nederlandse Organisatie voor …, priority 2009, dated 2014)

Tested on: human plasma
Test: plasma binding by partition extraction in dimethylsiloxane-coated 96-well plates
Type: in vitro ADME
Settings: one plate
Procedure: 96-wells deepwell plates (lot 1450-401 Perkin-Elmer Lifesciences) were coated with dimethylsiloxane by making the solutions A-H here below in n-hexane. The used dimethylsiloxane (Silicone rubber, GE Silicones, Bergen op Zoom, The Netherlands) has a density of 1.06. Solution H contains 9.54 g dimethylsiloxane in 300 ml n-hexane.
From solutions A-H 100 μl is pipetted in row A-H of each plate. Plates were dried to air for minimally 18 hours (overnight).
To each dilution of plasma (solutions 1-12) an identical amount of the compound to be tested is added (about […]/200 μl solution). […] The solutions are incubated with the compound overnight at 4°.
The plasma solutions 1-12 are added to corresponding columns 1-12 of each plate (200 μl/well). Also 200 μl was added to a separate vessel to be able to correct for (plasma concentration dependent) solubilization. The next day the plates are emptied, washed once with aqua bidest and dried. When sufficient dry in all wells 200 μl counting solution (Optiphase Hisafe 2, Perkin Elmer Lifesciences) is added and the plates are covered. After incubation for minimally 4 hours under gently shaking the radioactivity in each plate is determined using liquid scintillation counting with a MicroBeta device (Perkin Elmer).
Additionally a total count was determined for each well. The total count is the count in the polymer coating+the count in the remaining fluid. The latter was determined by isolating 25 μl from solution in each well prior to emptying, and mixing with Optiphase (Perkin Elmer) followed by liquid scintillation counting.
1. For each datapoint for which the total count was determined, the recovery of total radioactivity was determined by comparing with the counts of the reference spiking solution. Cells with a total recovery <75% were excluded from further data analysis.
2. From all rows containing polymer, the a-specific binding, i.e. the corresponding counts from the row without polymer, was substracted.
3. Curve fitting was applied using the following formula for each cell:
Predicted counts in coating=Tc/((1/ffp+1/fp−1)×(fp×Vw)/Kpdms/Vp)), where
The above formula was fitted using ffp and Kpdms target parameters to be optimized using the least squares regression method over all wells that were included in the data analysis, by calculating the squared difference between the measured counts in the coating and the predicted counts in the coating. Results

counts in the polymer coating (plasma 0 ml/ml, coating 0 nl): 2561 | counts in the polymer coating (plasma 0 ml/ml, coating 4.1 nl): 3274 | counts in the polymer coating (plasma 0 ml/ml, coating 10.2 nl): 4727 | counts in the polymer coating (plasma 0 ml/ml, coating 25.6 nl): 6222 | counts in the polymer coating (plasma 0 ml/ml, coating 64 nl): 6561 | counts in the polymer coating (plasma 0 ml/ml, coating 160 nl): 8997 | counts in the polymer coating (plasma 0 ml/ml, coating 400 nl): 9656 | counts in the polymer coating (plasma 0 ml/ml, coating 1000 nl): 10194 | counts in the polymer coating (plasma 0.0005 ml/ml, coating 0 nl): 408 | counts in the polymer coating (plasma 0.0005 ml/ml, coating 4.1 nl): 3323 | counts in the polymer coating (plasma 0.0005 ml/ml, coating 10.2 nl): 5936 | counts in the polymer coating (plasma 0.0005 ml/ml, coating 25.6 nl): 9146 | counts in the polymer coating (plasma 0.0005 ml/ml, coating 64 nl): 14297 | counts in the polymer coating (plasma 0.0005 ml/ml, coating 160 nl): 16590 | counts in the polymer coating (plasma 0.0005 ml/ml, coating 400 nl): 17305 | counts in the polymer coating (plasma 0.0005 ml/ml, coating 1000 nl): 17396 | counts in the polymer coating (plasma 0.0008 ml/ml, coating 0 nl): 355 | counts in the polymer coating (plasma 0.0008 ml/ml, coating 4.1 nl): 3033 | counts in the polymer coating (plasma 0.0008 ml/ml, coating 10.2 nl): 6243 | counts in the polymer coating (plasma 0.0008 ml/ml, coating 25.6 nl): 9649 | counts in the polymer coating (plasma 0.0008 ml/ml, coating 64 nl): 15214 | counts in the polymer coating (plasma 0.0008 ml/ml, coating 160 nl): 17344 | counts in the polymer coating (plasma 0.0008 ml/ml, coating 400 nl): 18129 | counts in the polymer coating (plasma 0.0008 ml/ml, coating 1000 nl): 18254 | counts in the polymer coating (plasma 0.001 ml/ml, coating 0 nl): 368 | counts in the polymer coating (plasma 0.001 ml/ml, coating 4.1 nl): 2677 | counts in the polymer coating (plasma 0.001 ml/ml, coating 10.2 nl): 6668 | counts in the polymer coating (plasma 0.001 ml/ml, coating 25.6 nl): 10037 | counts in the polymer coating (plasma 0.001 ml/ml, coating 64 nl): 15293 | counts in the polymer coating (plasma 0.001 ml/ml, coating 160 nl): 17749 | counts in the polymer coating (plasma 0.001 ml/ml, coating 400 nl): 18063 | counts in the polymer coating (plasma 0.001 ml/ml, coating 1000 nl): 18984 | counts in the polymer coating (plasma 0.003 ml/ml, coating 0 nl): 250 | counts in the polymer coating (plasma 0.003 ml/ml, coating 4.1 nl): 2391 | counts in the polymer coating (plasma 0.003 ml/ml, coating 10.2 nl): 6779 | counts in the polymer coating (plasma 0.003 ml/ml, coating 25.6 nl): 9818 | counts in the polymer coating (plasma 0.003 ml/ml, coating 64 nl): 15161 | counts in the polymer coating (plasma 0.003 ml/ml, coating 160 nl): 18112 | counts in the polymer coating (plasma 0.003 ml/ml, coating 400 nl): 19067 | counts in the polymer coating (plasma 0.003 ml/ml, coating 1000 nl): 19314 | counts in the polymer coating (plasma 0.005 ml/ml, coating 0 nl): 266 | counts in the polymer coating (plasma 0.005 ml/ml, coating 4.1 nl): 2725 | counts in the polymer coating (plasma 0.005 ml/ml, coating 10.2 nl): 7054 | counts in the polymer coating (plasma 0.005 ml/ml, coating 25.6 nl): 10234 | counts in the polymer coating (plasma 0.005 ml/ml, coating 64 nl): 15908 | counts in the polymer coating (plasma 0.005 ml/ml, coating 160 nl): 18628 | counts in the polymer coating (plasma 0.005 ml/ml, coating 400 nl): 19174 | counts in the polymer coating (plasma 0.005 ml/ml, coating 1000 nl): 19676 | counts in the polymer coating (plasma 0.008 ml/ml, coating 0 nl): 262 | counts in the polymer coating (plasma 0.008 ml/ml, coating 4.1 nl): 2605 | counts in the polymer coating (plasma 0.008 ml/ml, coating 10.2 nl): 5943 | counts in the polymer coating (plasma 0.008 ml/ml, coating 25.6 nl): 9899 | counts in the polymer coating (plasma 0.008 ml/ml, coating 64 nl): 15892 | counts in the polymer coating (plasma 0.008 ml/ml, coating 160 nl): 18582 | counts in the polymer coating (plasma 0.008 ml/ml, coating 400 nl): 19405 | counts in the polymer coating (plasma 0.008 ml/ml, coating 1000 nl): 19541 | counts in the polymer coating (plasma 0.01 ml/ml, coating 0 nl): 260 | counts in the polymer coating (plasma 0.01 ml/ml, coating 4.1 nl): 2644 | counts in the polymer coating (plasma 0.01 ml/ml, coating 10.2 nl): 6466 | counts in the polymer coating (plasma 0.01 ml/ml, coating 25.6 nl): 9247 | counts in the polymer coating (plasma 0.01 ml/ml, coating 64 nl): 15112 | counts in the polymer coating (plasma 0.01 ml/ml, coating 160 nl): 18647 | counts in the polymer coating (plasma 0.01 ml/ml, coating 400 nl): 19137 | counts in the polymer coating (plasma 0.01 ml/ml, coating 1000 nl): 19454 | counts in the polymer coating (plasma 0.02 ml/ml, coating 0 nl): 208 | counts in the polymer coating (plasma 0.02 ml/ml, coating 4.1 nl): 2135 | counts in the polymer coating (plasma 0.02 ml/ml, coating 10.2 nl): 5288 | counts in the polymer coating (plasma 0.02 ml/ml, coating 25.6 nl): 8673 | counts in the polymer coating (plasma 0.02 ml/ml, coating 64 nl): 14665 | counts in the polymer coating (plasma 0.02 ml/ml, coating 160 nl): 18017 | counts in the polymer coating (plasma 0.02 ml/ml, coating 400 nl): 19188 | counts in the polymer coating (plasma 0.02 ml/ml, coating 1000 nl): 19218 | counts in the polymer coating (plasma 0.03 ml/ml, coating 0 nl): 195 | counts in the polymer coating (plasma 0.03 ml/ml, coating 4.1 nl): 1925 | counts in the polymer coating (plasma 0.03 ml/ml, coating 10.2 nl): 4066 | counts in the polymer coating (plasma 0.03 ml/ml, coating 25.6 nl): 6969 | counts in the polymer coating (plasma 0.03 ml/ml, coating 64 nl): 13475 | counts in the polymer coating (plasma 0.03 ml/ml, coating 160 nl): 17384 | counts in the polymer coating (plasma 0.03 ml/ml, coating 400 nl): 18707 | counts in the polymer coating (plasma 0.03 ml/ml, coating 1000 nl): 19112 | counts in the polymer coating (plasma 0.04 ml/ml, coating 0 nl): 156 | counts in the polymer coating (plasma 0.04 ml/ml, coating 4.1 nl): 1501 | counts in the polymer coating (plasma 0.04 ml/ml, coating 10.2 nl): 3633 | counts in the polymer coating (plasma 0.04 ml/ml, coating 25.6 nl): 5932 | counts in the polymer coating (plasma 0.04 ml/ml, coating 64 nl): 12160 | counts in the polymer coating (plasma 0.04 ml/ml, coating 160 nl): 16322 | counts in the polymer coating (plasma 0.04 ml/ml, coating 400 nl): 18174 | counts in the polymer coating (plasma 0.04 ml/ml, coating 1000 nl): 18716 | counts in the polymer coating (plasma 0.05 ml/ml, coating 0 nl): 124 | counts in the polymer coating (plasma 0.05 ml/ml, coating 4.1 nl): 1143 | counts in the polymer coating (plasma 0.05 ml/ml, coating 10.2 nl): 2760 | counts in the polymer coating (plasma 0.05 ml/ml, coating 25.6 nl): 5080 | counts in the polymer coating (plasma 0.05 ml/ml, coating 64 nl): 10938 | counts in the polymer coating (plasma 0.05 ml/ml, coating 160 nl): 16100 | counts in the polymer coating (plasma 0.05 ml/ml, coating 400 nl): 17730 | counts in the polymer coating (plasma 0.05 ml/ml, coating 1000 nl): 18325
Compound: CC(C)c1nc(CN(C)C(=O)N[C@H](C(=O)N[C@@H](Cc2ccccc2)C[C@H](O)[C@H](Cc2ccccc2)NC(=O)OCc2cncs2)C(C)C)cs1 [Ritonavir]
